Where two headings read alike, the source gives them in different places.
What was measured:
JARID1B = target: T1, JARID1B (Homo sapiens, UniProt Q9UGL1); experiment: FLAG-JARID1B histone demethylase assay with AlphaScreen detection (HTS and dose response); type: biochemical; settings: for Assay − Artifact Signal (percent): assay signal minus artifact signal; for inhibition at 20 µM / Inhibitory effect (percent): high-throughput screen, compound 20 μM; for inhibition at 20 µM: read-out: Inhibitory effect (percent); for Assay Signal (percent) / Validation result of HTS active: effect of the compound in the JARID1B AlphaScreen demethylase assay: validation of HTS actives; for Assay Signal (percent): effect of compound in JARID1B AlphaScreen assay; for Validation result of HTS active: effect of the compound in the JARID1B AlphaScreen demethylase assay: total signal before subtraction of artifact signal;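 on Assay Signal (percent): compound tested at 20 µM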;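 on Assay − Artifact Signal (percent): compound tested at 20 µM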;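 on all read-outs here: FLAG-tagged JARID1B at 4 nM acting on a biotinylated H3K4me3 peptide, demethylation read by AlphaScreen luminescence, with hits checked against bio-H3K4me2 without enzyme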
T1 construct: The FLAG tagged full length JARID1B enzyme was expressed in Sf21 insect cells using FLAG-JARID1B baculoviruses; FLAG (N); made in house; host or cells: Sf21 insect cells (baculovirus)

[1] = AlphaScreen counterscreen against bio-H3K4me2 peptide in the absence of enzyme (artifact signal); settings: for Artifact Signal (percent): effect of the compound when incubated with bio-H3K4me2 peptide (counterscreen, no enzyme); for Artifact signal: effect of the compound when it is incubated with bio-H3K4me2 peptide: counterscreen, no enzyme;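 on all read-outs here: counterscreen run without enzyme against bio-H3K4me2 peptide to remove false positive hits from the JARID1 demethylase AlphaScreen screen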
[2] = standard demethylase conditions (10 μM α-KG, 50 μM Fe (II))

T1 sequence (Q9UGL1 whole entry): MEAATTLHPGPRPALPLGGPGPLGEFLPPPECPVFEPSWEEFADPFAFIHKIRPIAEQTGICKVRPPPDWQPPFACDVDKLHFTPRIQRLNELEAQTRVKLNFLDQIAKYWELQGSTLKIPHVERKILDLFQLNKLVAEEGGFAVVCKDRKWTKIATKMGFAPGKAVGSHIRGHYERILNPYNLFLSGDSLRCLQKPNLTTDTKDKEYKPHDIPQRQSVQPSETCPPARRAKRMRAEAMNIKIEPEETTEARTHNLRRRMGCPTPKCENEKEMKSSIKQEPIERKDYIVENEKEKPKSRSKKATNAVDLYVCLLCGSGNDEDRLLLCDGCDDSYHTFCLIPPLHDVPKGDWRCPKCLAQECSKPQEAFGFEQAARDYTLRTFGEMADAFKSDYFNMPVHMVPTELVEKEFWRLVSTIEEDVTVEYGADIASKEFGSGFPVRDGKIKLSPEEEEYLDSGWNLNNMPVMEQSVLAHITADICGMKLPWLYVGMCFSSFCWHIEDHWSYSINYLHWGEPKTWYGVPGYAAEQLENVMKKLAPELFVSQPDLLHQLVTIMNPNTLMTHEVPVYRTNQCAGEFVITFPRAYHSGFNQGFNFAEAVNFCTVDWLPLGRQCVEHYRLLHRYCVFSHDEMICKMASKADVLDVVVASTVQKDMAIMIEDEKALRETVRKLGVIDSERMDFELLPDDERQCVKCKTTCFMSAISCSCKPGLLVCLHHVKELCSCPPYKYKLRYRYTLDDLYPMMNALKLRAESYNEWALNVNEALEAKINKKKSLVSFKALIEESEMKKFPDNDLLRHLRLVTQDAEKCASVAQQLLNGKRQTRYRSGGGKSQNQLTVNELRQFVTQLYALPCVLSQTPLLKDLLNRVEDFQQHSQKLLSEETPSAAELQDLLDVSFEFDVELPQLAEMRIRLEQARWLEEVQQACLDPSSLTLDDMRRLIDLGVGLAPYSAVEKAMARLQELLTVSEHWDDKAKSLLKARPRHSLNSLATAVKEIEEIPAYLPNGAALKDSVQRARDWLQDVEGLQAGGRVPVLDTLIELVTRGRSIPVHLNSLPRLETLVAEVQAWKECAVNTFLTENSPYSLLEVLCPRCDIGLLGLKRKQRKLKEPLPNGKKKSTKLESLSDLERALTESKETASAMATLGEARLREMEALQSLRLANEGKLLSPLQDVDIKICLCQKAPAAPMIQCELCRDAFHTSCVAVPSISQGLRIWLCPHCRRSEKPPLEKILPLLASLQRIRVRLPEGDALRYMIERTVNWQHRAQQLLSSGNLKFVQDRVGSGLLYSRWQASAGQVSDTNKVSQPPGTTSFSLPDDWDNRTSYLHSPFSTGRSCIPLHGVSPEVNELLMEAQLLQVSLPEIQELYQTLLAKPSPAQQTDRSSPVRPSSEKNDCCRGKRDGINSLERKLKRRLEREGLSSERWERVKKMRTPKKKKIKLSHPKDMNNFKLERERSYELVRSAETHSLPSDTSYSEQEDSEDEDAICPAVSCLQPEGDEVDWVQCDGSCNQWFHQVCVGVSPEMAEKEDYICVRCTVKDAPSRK

C=C[C@@H](C1=CC(=O)C(OC)=C(OC)C1=O)c1ccccc1 [YU155075, 3,4-DIMETHOXY- DALBERGIONE, reference compound]
Assay − Artifact Signal (percent) (JARID1B): 38.83%
inhibition at 20 µM (JARID1B; [2]): 75.9%
Assay Signal (percent) (JARID1B): 49.97%
Artifact Signal (percent) [1]: 11.14%

Oc1cc(O)c2c(c1)O[C@H](c1cc(O)c(O)c(O)c1)[C@H](O)C2 [YU155087, EPIGALLOCATECHIN, reference compound]
Assay − Artifact Signal (percent) (JARID1B): 19.74%
inhibition at 20 µM (JARID1B; [2]): 55.5%
Assay Signal (percent) (JARID1B): 44.50%
Artifact Signal (percent) [1]: 24.76%

O=C(Oc1cc(O)cc2c1C[C@@H](OC(=O)c1cc(O)c(O)c(O)c1)[C@@H](c1cc(O)c(O)c(O)c1)O2)c1cc(O)c(O)c(O)c1 [YU155091, EPIGALLOCATECHIN 3,5-DIGALLATE, reference compound]
inhibition at 20 µM (JARID1B; [2]): 92.2%
Validation result of HTS active: effect of the compound in the JARID1B AlphaScreen demethylase assay (JARID1B): −0.05
Artifact signal: effect of the compound when it is incubated with bio-H3K4me2 peptide [1]: −3.13

O=C(O)c1cc(O)c(=O)c2c(O)c(O)c(O)cc2c1 [YU155193, PURPUROGALLIN-4- CARBOXYLIC ACID, reference compound]
inhibition at 20 µM (JARID1B; [2]): 97.5%
Validation result of HTS active: effect of the compound in the JARID1B AlphaScreen demethylase assay (JARID1B): −1.37
Artifact signal: effect of the compound when it is incubated with bio-H3K4me2 peptide [1]: −3.21

O=c1c(O)c(-c2ccc(O)c(O)c2)oc2cc(O)ccc12 [YU155255, FISETIN, reference compound]
Assay − Artifact Signal (percent) (JARID1B): 22.49%
inhibition at 20 µM (JARID1B; [2]): 45.8%
Assay Signal (percent) (JARID1B): 91.26%
Artifact Signal (percent) [1]: 68.78%

O=C1C=C2CC3(O)COc4c(ccc(O)c4O)C3=C2C=C1O (stereo not shown) [YU155257, HEMATEIN, reference compound]
inhibition at 20 µM (JARID1B; [2]): 105%
Validation result of HTS active: effect of the compound in the JARID1B AlphaScreen demethylase assay (JARID1B): 104.73
Artifact signal: effect of the compound when it is incubated with bio-H3K4me2 peptide [1]: 99.07

O=c1cc(-c2ccccc2)oc2cc(O)c(O)c(O)c12 [YU155285, BAICALEIN, reference compound]
inhibition at 20 µM (JARID1B; [2]): 65.2%
Validation result of HTS active: effect of the compound in the JARID1B AlphaScreen demethylase assay (JARID1B): 0.59
Artifact signal: effect of the compound when it is incubated with bio-H3K4me2 peptide [1]: 1.01

O=c1c(O)c(-c2cc(O)c(O)c(O)c2)oc2cc(O)cc(O)c12 [YU155300, MYRICETIN, reference compound]
inhibition at 20 µM (JARID1B; [2]): 72.1%
Validation result of HTS active: effect of the compound in the JARID1B AlphaScreen demethylase assay (JARID1B): 74.84
Artifact signal: effect of the compound when it is incubated with bio-H3K4me2 peptide [1]: 69.07

O=c1cc(-c2cc(O)c(O)c(O)c2)oc2cc(O)cc(O)c12 [YU155308, HIERACIN, reference compound]
inhibition at 20 µM (JARID1B; [2]): 40.7%
Validation result of HTS active: effect of the compound in the JARID1B AlphaScreen demethylase assay (JARID1B): 34.84
Artifact signal: effect of the compound when it is incubated with bio-H3K4me2 peptide [1]: 92.13

CC(C)(C#N)O[C@@H]1O[C@H](CO)[C@@H](O)[C@H](O)[C@H]1O [YU155312, LINAMARIN, reference compound]
Assay − Artifact Signal (percent) (JARID1B): 99.23%
inhibition at 20 µM (JARID1B; [2]): 60.3%
Assay Signal (percent) (JARID1B): 92.68%
Artifact Signal (percent) [1]: −6.55%

O=C(O[C@@H]1Cc2c(O)cc(O)cc2O[C@@H]1c1cc(O)c(=O)c2c(O)c(O)cc([C@H]3Oc4cc(O)cc(O)c4C[C@H]3O)c2c1)c1cc(O)c(O)c(O)c1 [YU155347, THEAFLAVIN MONOGALLATES, reference compound]
inhibition at 20 µM (JARID1B; [2]): 104%
Validation result of HTS active: effect of the compound in the JARID1B AlphaScreen demethylase assay (JARID1B): 103.69
Artifact signal: effect of the compound when it is incubated with bio-H3K4me2 peptide [1]: 95.69

O=c1c(O)c(-c2ccc(O)c(O)c2)oc2c(O)c(O)cc(O)c12 [YU155360, GOSSYPETIN, reference compound]
Assay − Artifact Signal (percent) (JARID1B): 18.96%
inhibition at 20 µM (JARID1B; [2]): 103%
Assay Signal (percent) (JARID1B): 100.77%
Artifact Signal (percent) [1]: 81.81%

C#CCCCCCCCCCCCC(O)CC(O)COC(C)=O (stereo not shown) [YU155369, AVOCADYNE ACETATE, reference compound]
Assay − Artifact Signal (percent) (JARID1B): 45.03%
inhibition at 20 µM (JARID1B; [2]): 45.1%
Assay Signal (percent) (JARID1B): 44.82%
Artifact Signal (percent) [1]: −0.21%

CC(C)=CCc1c2c(c3occ(-c4ccc(O)c(O)c4)c(=O)c3c1O)C=CC(C)(C)O2 [YU155407, POMIFERIN, reference compound]
Inhibitory effect (percent) (JARID1B; [2]): 91.09%
Validation result of HTS active: effect of the compound in the JARID1B AlphaScreen demethylase assay (JARID1B): 16.14
Artifact signal: effect of the compound when it is incubated with bio-H3K4me2 peptide [1]: 10.52

O=c1c(-c2cc(O)c(O)c(O)c2)coc2cc(O)c(O)c(O)c12 [YU155411, IRIGENOL, reference compound]
Assay − Artifact Signal (percent) (JARID1B): 31.75%
inhibition at 20 µM (JARID1B; [2]): 94.9%
Assay Signal (percent) (JARID1B): 22.64%
Artifact Signal (percent) [1]: −9.11%

O=c1c(O)cccc2cc(O)c(O)c(O)c12 [YU155440, PURPUROGALLIN, reference compound]
inhibition at 20 µM (JARID1B; IDs marked *: additional hits under reaction condition with 1 mM α-KG): 42.5%
Validation result of HTS active: effect of the compound in the JARID1B AlphaScreen demethylase assay (JARID1B): 13.64
Artifact signal: effect of the compound when it is incubated with bio-H3K4me2 peptide [1]: 6.39

C[n+]1cc2c3c(ccc2c2ccc4cc5c(cc4c21)OCO5)OCO3.O=S(=O)([O-])O [YU155443, SANGUINARINE SULFATE, reference compound]
Assay − Artifact Signal (percent) (JARID1B): 17.36%
Inhibitory effect (percent) (JARID1B; [2]): 62.80%
Assay Signal (percent) (JARID1B): 5.51%
Artifact Signal (percent) [1]: −11.85%

COc1cccc(O)c1O [YU155465, 3-METHOXYCATECHOL, reference compound]
Assay − Artifact Signal (percent) (JARID1B): 48.87%
inhibition at 20 µM (JARID1B; [2]): 56.5%
Assay Signal (percent) (JARID1B): 56.84%
Artifact Signal (percent) [1]: 7.97%

COc1cccc2c1C(=O)c1c(O)c3c(c(O)c1C2=O)C[C@@](O)(C(C)=O)C[C@@H]3O[C@H]1C[C@H](N)[C@H](O)[C@H](C)O1 [YU155488, DAUNORUBICIN, reference compound]
Assay − Artifact Signal (percent) (JARID1B): 45.32%
Assay Signal (percent) (JARID1B): 48.63%
Artifact Signal (percent) [1]: 3.31%

COc1cc2cc3c4cc(OC)c(OC)cc4cc[n+]3c(C)c2cc1OC.[Cl-] [YU155528, CORALYNE CHLORIDE, reference compound]
inhibition at 20 µM (JARID1B; [2]): 73.2%
Validation result of HTS active: effect of the compound in the JARID1B AlphaScreen demethylase assay (JARID1B): −1.03
Artifact signal: effect of the compound when it is incubated with bio-H3K4me2 peptide [1]: −5.30

O=C(O)c1cc(O)c(O)c(O)c1 [YU155562, GALLIC ACID, reference compound]
Assay − Artifact Signal (percent) (JARID1B): 51.44%
inhibition at 20 µM (JARID1B; [2]): 63.9%
Assay Signal (percent) (JARID1B): 59.88%
Artifact Signal (percent) [1]: 8.44%

Oc1cc(O)c2c(c1)O[C@H](c1ccc(O)c(O)c1)[C@H](O)C2 [YU155618, EPICATECHIN, reference compound]
Assay − Artifact Signal (percent) (JARID1B): 57.78%
inhibition at 20 µM (JARID1B; [2]): 66%
Assay Signal (percent) (JARID1B): 64.74%
Artifact Signal (percent) [1]: 6.96%

COc1c(O)cc2c(c1O)[C@@H]1O[C@H](CO)[C@@H](O)[C@H](O)[C@H]1OC2=O [YU155621, BERGENIN, reference compound]
Assay − Artifact Signal (percent) (JARID1B): 73.02%
inhibition at 20 µM (JARID1B; [2]): 96.8%
Assay Signal (percent) (JARID1B): 93.44%
Artifact Signal (percent) [1]: 20.42%

Fc1ccccc1-c1nc2ncccc2o1 [YU172071]
inhibition at 20 µM (JARID1B; [2]): 37.3%
Validation result of HTS active: effect of the compound in the JARID1B AlphaScreen demethylase assay (JARID1B): 3.80
Artifact signal: effect of the compound when it is incubated with bio-H3K4me2 peptide [1]: −1.99

Cc1c2c(=O)n(-c3nc4ccccc4s3)[nH]c2cc(=O)n1CCN1CCOCC1 [YU172087]
Assay − Artifact Signal (percent) (JARID1B): 21.21%
inhibition at 20 µM (JARID1B; [2]): 56.4%
Assay Signal (percent) (JARID1B): 14.44%
Artifact Signal (percent) [1]: −6.77%

Cc1c2c(=O)n(-c3nc4ccccc4s3)[nH]c2cc(=O)n1Cc1ccc(C(=O)O)cc1 [YU172089]
Assay − Artifact Signal (percent) (JARID1B): 11.36%
inhibition at 20 µM (JARID1B; [2]): 92.3%
Assay Signal (percent) (JARID1B): 22.52%
Artifact Signal (percent) [1]: 11.16%

Oc1c(C(Nc2ccccc2Cl)c2cccnc2)ccc2cccnc12 (stereo not shown) [YU172164]
Assay − Artifact Signal (percent) (JARID1B): 11.14%
inhibition at 20 µM (JARID1B; [2]): 56%
Assay Signal (percent) (JARID1B): 47.38%
Artifact Signal (percent) [1]: 36.24%

Oc1c(C(Nc2ccc(Cl)cc2)c2cccnc2)ccc2cccnc12 (stereo not shown) [YU172165]
Assay − Artifact Signal (percent) (JARID1B): 14.24%
inhibition at 20 µM (JARID1B; [2]): 42.3%
Assay Signal (percent) (JARID1B): 43.01%
Artifact Signal (percent) [1]: 28.76%

Reference: patent US20150272939A1, “Identification of Small Molecule Inhibitors of Jumonji AT-Rich Interactive Domain 1A (JARID1A) and 1B (JARID1B) Histone Demethylase” (Yale University, priority 2012, published 2015)
